# Entries after “also recorded” stand apart in the source; their conditions may differ.
# B1: collagen III: intact collagen III (protein)
# chain: QQEAVEGGCSHLGQSYADRDVWKPEPCQICVCDSGSVLCDDIICDDQELDCPNPEIPFGECCAVCPQPPTAPTRPPNGQGPQGPKGDPGPPGIPGRNGDPGIPGQPGSPGSPGPPGICESCPTGPQNYSPQYDSYDVKSGVAVGGLAGYPGPAGPPGPPGPPGTSGHPGSPGSPGYQGPPGEPGQAGPSGPPGPPGAIGPSGPAGKDGESGRPGRPGERGLPGPPGIKGPAGIPGFPGMKGHRGFDGRNGEKGETGAPGLKGENGLPGENGAPGPMGPRGAPGERGRPGLPGAAGARGNDGARGSDGQPGPPGPPGTAGFPGSPGAKGEVGPAGSPGSNGAPGQRGEPGPQGHAGAQGPPGPPGINGSPGGKGEMGPAGIPGAPGLMGARGPPGPAGANGAPGLRGGAGEPGKNGAKGEPGPRGERGEAGIPGVPGAKGEDGKDGSPGEPGANGLPGAAGERGAPGFRGPAGPNGIPGEKGPAGERGAPGPAGPRGAAGEPGRDGVPGGPGMRGMPGSPGGPGSDGKPGPPGSQGESGRPGPPGPSGPRGQPGVMGFPGPKGNDGAPGKNGERGGPGGPGPQGPPGKNGETGPQGPPGPTGPGGDKGDTGPPGPQGLQGLPGTGGPPGENGKPGEPGPKGDAGAPGAPGGKGDAGAPGERGPPGLAGAPGLRGGAGPPGPEGGKGAAGPPGPPGAAGTPGLQGMPGERGGLGSPGPKGDKGEPGGPGADGVPGKDGPRGPTGPIGPPGPAGQPGDKGEGGAPGLPGIAGPRGSPGERGETGPPGPAGFPGAPGQNGEPGGKGERGAPGEKGEGGPPGVAGPPGGSGPAGPPGPQGVKGERGSPGGPGAAGFPGARGLPGPPGSNGNPGPPGPSGSPGKDGPPGPAGNTGAPGSPGVSGPKGDAGQPGEKGSPGAQGPPGAPGPLGIAGITGARGLAGPPGMPGPRGSPGPQGVKGESGKPGANGLSGERGPPGPQGLPGLAGTAGEPGRDGNPGSDGLPGRDGSPGGKGDRGENGSPGAPGAPGHPGPPGPVGPAGKSGDRGESGPAGPAGAPGPAGSRGAPGPQGPRGDKGETGERGAAGIKGHRGFPGNPGAPGSPGPAGQQGAIGSPGPAGPRGPVGPSGPPGKDGTSGHPGPIGPPGPRGNRGERGSEGSPGHPGQPGPPGPPGAPGPCCGGVGAAAIAGIGGEKAGGFAPYYG
# What was measured:
# α10β1 = assay: Overall recognition by α10β1 (I domain and C2C12-α10β1 cells, summary); details: abstract and discussion; I domain and/or C2C12-α10β1 cells
# Method: I domain adhesion was determined colorimetrically, as described, here termed solid phase binding assay (SPBA). Peptides were coated at 10 μg/ml for 1 h at 22 °C on Immulon-2 HB 96-well plates (Thermo Life Sciences, Basingstoke, UK), and blocked for 1 h with 200 μl of TBS containing 50 mg/ml bovine serum albumin. Wells were washed four times with 200 μl of the adhesion buffer (TBS with 1 mg/ml bovine serum albumin) before adding 100 μl of adhesion buffer containing 10 μg/ml of recombinant GST I domains in the presence of either 2 mM MgCl2 or EDTA for 1 h at room temperature. Wells were washed five times with 200 μl of adhesion buffer containing MgCl2 or EDTA, before adding 100 μl of adhesion buffer containing the anti-GST-HRP conjugate at 1:10,000 dilution for 1 h at room temperature. After washing, colour was developed using an ImmunoPure TMB Substrate Kit (Pierce) according to the manufacturer's instructions.
# (§1) The mouse myoblast cell line, C2C12, (control and transfectants, C2C12-α1β1, C2C12-α2β1, C2C12-α10β1 or C2C12-α11β1) was maintained in RPMI medium containing 10% fetal bovine serum, 2 mM glutamine, 100 IU/ml penicillin, 100 μg/ml streptomycin, and 2.5 μg/ml amphotericin. Cells were harvested by centrifugation, washed, and suspended at 0.5 × 10^6/ml in Tris-buffered saline supplemented with 5.5 mM glucose and either 2 mM EDTA or 2 mM MgCl2. SPBA was performed as follows: 100 μl of the cell suspension was added to peptide-coated wells [42] at 20 °C for 60 min. Cell adhesion was determined colorimetrically after lysis, using a lactate dehydrogenase (LDH)-based cell detection kit (Roche Diagnostics) according to the supplier's instructions.
# (§2) To quantitate C2C12-α10β1 binding to collagen peptides, we used the impedance-based xCELLigence system (Acea) that allows label-free, dynamic monitoring of cell adhesion in real-time. The assay system expresses the adhesion-dependent rise in well impedance in units of cell index (CI), defined as (Rn − Rb) / 15; where Rn is the electrical impedance of each cell-containing well and Rb is the background impedance of the well with medium alone
# [1] = system: collagen-binding integrins; design: method as in 3 sources, ref [7], [8] = [7]; PMID 10778855; doi:10.1016/S0092-8674(00)80622-4; 7 Emsley J. Knight C.G. Farndale R.W. Barnes M.J. Liddington R.C. Structural basis of collagen recognition by integrin alpha2beta1 Cell 101 1 2000 47 56 10778855 10.1016/S0092-8674(00)80622-4 || [8]; PMID 16326707; doi:10.1074/jbc.M509818200; 8 Raynal N. Hamaia S.W. Siljander P.R. Maddox B. Peachey A.R. Fernandez R. Foley L.J. Slatter D.A. Jarvis G.E. Farndale R.W. Use of synthetic peptides to locate novel integrin alpha2beta1-binding moti ||| ref [8], [10] = [8]; PMID 16326707; doi:10.1074/jbc.M509818200; 8 Raynal N. Hamaia S.W. Siljander P.R. Maddox B. Peachey A.R. Fernandez R. Foley L.J. Slatter D.A. Jarvis G.E. Farndale R.W. Use of synthetic peptides to locate novel integrin alpha2beta1-binding moti || [10]; PMID 16043429; doi:10.1074/jbc.M502431200; 10 Kim J.K. Xu Y. Xu X. Keene D.R. Gurusiddappa S. Liang X. Wary K.K. Hook M. A novel binding site in collagen type III for the integrins, alpha 1beta 1 and alpha 2beta 1 J. Biol. Chem. 280 2005 32512 ||| ref [11] = [11]; PMID 10986291; doi:10.1074/jbc.M007668200; 11 Xu Y. Gurusiddappa S. Rich R.L. Owens R.T. Keene D.R. Mayne R. Hook A. Hook M. Multiple binding sites in collagen type I for the integrins α1β1 and α2β1 J. Biol. Chem. 275 2000 38981 38989 10986291; details: ref [11]; cited from earlier work
# Description: Many related motifs have now been identified using the Collagen Toolkits developed in this laboratory for the purpose. These are libraries of overlapping peptides of 27 amino acids of collagen primary sequence (guest sequence), flanked ...
# C2C12-α10β1 cells [2] = assay: LDH-based SPBA of C2C12-α10β1 cell adhesion; design: species or system mouse; details: short THPs, 2 mM Mg^2 +, 1 h, Fig. 4B
# Method: The mouse myoblast cell line, C2C12-α10β1 clone, expresses α10β1 as its sole collagen-binding integrin [16]. To investigate the binding of α10β1 to collagen in a cellular and whole integrin context, therefore, the adhesion of C2C12-α10β1 cells to Toolkits II and III was performed using two different approaches. First, SPBA was used, with lactate dehydrogenase to report the presence of adherent cells, after lysis, as described in Experimental. […] C2C12-α10B1 cells generally bound more prominently to those weaker peptides that supported just-observable binding of free I-domain. This may reflect avidity of the receptor-populated cell surface for the peptide-coated wells, or perhaps up-regulation of integrin affinity following receptor engagement. It is also possible that some cell binding reflects specific indirect interactions. For example, fibronectin, available either by intrinsic expression or from the serum supplement, binds well to II-44, and can also bind integrin αVβ3 [21].
# Fig. 2 Binding of α10β1-transfected C2C12 cells to Collagen Toolkits. 96-well plates were coated with peptides as for Fig. 1, then C2C12-α10β1 cells (5 × 10^4 per well) were added and incubated for 1 h in the presence of either 2 mM MgCl2 or 2 mM EDTA as above. A: binding to Toolkit II. B: binding to Toolkit III.
# as §1
# α2β1 = system: α2β1; design: method as in 4 sources, ref [8], [10] = [8]; PMID 16326707; doi:10.1074/jbc.M509818200; 8 Raynal N. Hamaia S.W. Siljander P.R. Maddox B. Peachey A.R. Fernandez R. Foley L.J. Slatter D.A. Jarvis G.E. Farndale R.W. Use of synthetic peptides to locate novel integrin alpha2beta1-binding moti || [10]; PMID 16043429; doi:10.1074/jbc.M502431200; 10 Kim J.K. Xu Y. Xu X. Keene D.R. Gurusiddappa S. Liang X. Wary K.K. Hook M. A novel binding site in collagen type III for the integrins, alpha 1beta 1 and alpha 2beta 1 J. Biol. Chem. 280 2005 32512 ||| ref not given ||| ref [4] = [4]; PMID 19693543; doi:10.1007/s00441-009-0834-6; 4 Barczyk M. Carracedo S. Gullberg D. Integrins Cell Tissue Res. 339 1 2010 269 280 19693543 10.1007/s00441-009-0834-6 PMC2784866 ||| ref [12] = [12]; PMID 22654115; doi:10.1074/jbc.M112.353144; 12 Hamaia S.W. Pugh N. Raynal N. Nemoz B. Stone R. Gullberg D. Bihan D. Farndale R.W. Mapping of potent and specific binding motifs, GLOGEN and GVOGEA, for integrin alpha1beta1 using collagen toolkits; details: cited from earlier work
# integrin α1β1 = system: integrin α1β1; design: method as in 3 sources, ref [4]; PMID 19693543; doi:10.1007/s00441-009-0834-6; 4 Barczyk M. Carracedo S. Gullberg D. Integrins Cell Tissue Res. 339 1 2010 269 280 19693543 10.1007/s00441-009-0834-6 PMC2784866 ||| ref [12] = [12]; PMID 22654115; doi:10.1074/jbc.M112.353144; 12 Hamaia S.W. Pugh N. Raynal N. Nemoz B. Stone R. Gullberg D. Bihan D. Farndale R.W. Mapping of potent and specific binding motifs, GLOGEN and GVOGEA, for integrin alpha1beta1 using collagen toolkits ||| ref not given; details: ref [12]; cited from earlier work
# Description: The collagen-binding integrin family is complete, with four established members, α1β1, α2β1, α10β1 and α11β1. These are highly-conserved, heterodimeric receptors with an important structural feature in common, the presence of an I (inserted) domain which contains the metal ion-dependent adhesion site (MIDAS). The MIDAS is a constellation of electronegative residues at the distal surface of this 200-residue domain that, in the resting, non-ligated state, can co-ordinate a Mg^2 + ion. […] Many related motifs have now been identified using the Collagen Toolkits developed in this laboratory for the purpose. These are libraries of overlapping peptides of 27 amino acids of collagen primary sequence (guest sequence), flanked ... || Why would collagen II differ in this respect?
# C2C12-α10β1 cells [3] = assay: xCELLigence real-time adhesion of C2C12-α10β1 cells; type: cell-based, mouse; details: 2.5 × 10^4 cells/well, 2 mM Mg^2 +, over 1 h, Fig. 3A
# Method: Fig. 3 Binding of α10β1-transfected C2C12 cells to collagens and selected Toolkit peptides. Peptides or collagens were coated on ePlates as described, then cells were added in the presence of 2 mM Mg^2 + or EDTA, and Cell Index value was collected over 1 h. […] B: time courses are shown of adhesion to selected Toolkit peptides or GPP-10.
# as §2
# Briefly, C2C12 cells were seeded at 2.5 × 10^4 cells/well in an E-plate (Roche Applied Science) pre-coated with peptides as for SPBA, and CI was measured for up to 2 h.
molecule,measurement,setting,value
"GAOGER [integrin motif in collagens II, III, IV, VI, VII, IX]","Recognition by α10β1, summary",α10β1,weak ligand
"GASGER [integrin motif in collagens I, XXIII]","Ligand of collagen-binding integrins, weak motifs",[1],weak ligands
"GFOGEK [short triple-helical peptide; motif in collagens IV, VI, X]",Adhesion of C2C12-α10β1 cells to short triple-helical peptides,C2C12-α10β1 cells [2],less well
same,"Recognition by α10β1, summary",α10β1,now shown to bind α10β1
GKOGER [motif occurring only in collagen X and in the α2 chain of collagen I],"Recognition by α10β1, summary",α10β1,compromised in the context of α10β1; also recorded: α10-repellent
GLKGEN [short triple-helical peptide containing GLKGEN],Adhesion of C2C12-α10β1 cells to short triple-helical peptides,C2C12-α10β1 cells [2],less well
"GLOGEA [short triple-helical peptide; motif in collagens IV, XI, XXVII]",Adhesion of C2C12-α10β1 cells to short triple-helical peptides,C2C12-α10β1 cells [2],bound strongly
GMOGER [short triple-helical peptide containing GMOGER],Adhesion of C2C12-α10β1 cells to short triple-helical peptides,C2C12-α10β1 cells [2],less well
"GRSGET [short THP containing GRSGET, motif unique to collagen II]","Recognition by α10β1, summary",α10β1,not recognised by α10β1; also recorded: α10-repellent
GVOGEA [integrin motif in collagen II],"Recognition by α10β1, summary",α10β1,moderately good ligand for α10β1
same,Affinity for α2β1,α2β1; ref [12],little affinity for α2β1
same,Affinity for integrin α1β1,integrin α1β1,moderate ligand
collagen I: intact collagen I,"Cell adhesion to collagens (Cell Index, endpoint)",C2C12-α10β1 cells [3],bound quite well
same,Preferred ligand of α2β1,α2β1; ref [4],preferred ligand
B1,"Cell adhesion to collagens (Cell Index, endpoint)",C2C12-α10β1 cells [3],bound quite well
